The record followed here is publication PMC11312998, “Molecular Pro-Apoptotic Activities of Flavanone Derivatives in Cyclodextrin Complexes: New Implications for Anticancer Therapy” (International Journal of Molecular Sciences, 2024).

One series relates to MCF-7. Kind of series: Superoxide anion generation, DHE probe. The class given is cell-based, human. The following applies: IC50 concentration, 24 h. On the procedure: (§1) The level of superoxide anion (O2^•−) was determined by microplate spectrofluorimetry with dihydroethidium (hydroethidine, DHE) (Life Technologies, Carlsbad, CA, USA), which is the most commonly used fluorogenic probe for monitoring the intracellular production of superoxide anion O2^•− [41]. […] Thanks to this shift, DHE can be used as a sensitive probe for cellular ROS. The reaction between superoxide and DHE generates a highly specific red fluorescent product, 2-hydroxyethidium (2-OH-E^+).
(§2) The cells were seeded in black 96-well fluorometric microplates at a density of 10 × 10^3 cells per well. […] After incubation, the medium was removed, the cell monolayer in the wells was washed twice with HBSS (140 mM NaCl, 5 mM KCl, 0.8 mM MgCl2, 1.8 mM CaCl2, 1 mM Na2HPO4, 10 mM HEPES and 1% glucose) and 50 μL of DHE solution in HBSS was added to each well (final probe concentration 5 μmol/L). Cells were incubated with the probe for 30 min in the dark in an incubator (37 °C), and then fluorescence was measured. The measurement was performed at the following excitation and fluorescence emission wavelengths: λex = 498 nm/λem = 582 nm. Fluorescence measurements were made on a Perkin-Elmer LS-5B spectrofluorometer (MA, USA). Fluorescence intensity values for control cells were arbitrarily set as 100%. The results are presented as percentages of control cell values, calculated relative to the fluorescence intensity of the controls (100%): sample fluorescence was calculated as Δf in relation to the controls.

A further series relates to Ishikawa. The experiment in a line: Superoxide anion generation, DHE probe. The class given is cell-based, human. The following applies: IC50 concentration, 24 h. On the procedure:
as §1, §2

Series [1] in a line: Isothermal titration calorimetry (ITC) of inclusion complex formation. In kind it is physicochemical. The settings on record: DMSO, 25 °C. On the procedure:
Measurements were carried out using a MicroCal VP-ITC100 microcalorimeter equipped with a 1400 μL measurement cell. All titrations were carried out under isothermal conditions at 25 degrees C in DMSO solution, which was used as a solvent. The mixing speed during the measurements was 351 rpm. The 0.2 mM solution of the ligand (3, 3a and 5) located in the measurement cell was titrated with the cyclodextrin solution located in the syringe. Each measurement consisted of 50 injections of cyclodextrin with a volume of 5 uL and a concentration of 5 mM. The interval between individual injections was 300 s. The effect of direct interaction of the ligand with CD was calculated by subtracting the thermal effects of diluting 5 mM cyclodextrin in a pure solvent. The dilution effect of the 0.2 mM ligand solution was negligible. The results obtained were processed in the MicroCall Origin 7 software. Using a single active site model (ITC Tutorial Guide), the stability constant K of the resulting complex, its stoichiometry n and thermodynamic parameters that describe the ongoing process were determined, viz., enthalpy (ΔH), Gibbs free energy (ΔG) and entropy (ΔS).
(Isothermal titration calorimetry measures the heat released or taken up as one component is titrated into another.)

The test system of series [2] is extrinsic coagulation pathway. The experiment in a line: Prothrombin time (PT). The class given is biochemical, human. The following applies: 1–100 µmol/L. Here is the method: Basic coagulation parameters were determined using Bio-Ksel reagents (Grudziądz, Poland): APTT reagent, calcium chloride, Bio-Ksel PT plus reagent (tromboplastin and solvent) and thrombin (3.0 UNIH/mL) for TT experiments. The methods were calibrated and the coefficient of variation (PT, APTT, TT experiments) was calculated using a calibrator (Bio-Ksel, Grudziadz, Poland), normal plasma (Bio-Ksel, Grudziądz, Poland) and water for injection (Polpharma, Gdańsk, Poland).
Control samples consisting of distilled water and methanol were tested. All methods were validated using Bio-Ksel normal plasma, which was dissolved in water for injection (Polpharma, Gdańsk, Poland). The reference values for each test are as follows: PT: 9.7–13.8 s; INR: 0.9–1.2; APTT: 28.2–42.3 s; TT: 11.0–16.5 s for 3.0 UNIH/mL of thrombin.

The nature of series [3]: Water solubility by UV–Vis spectrophotometry (phase solubility with cyclodextrins). In kind it is physicochemical. The following applies: 25 °C, thermodynamic from solid, 298.15 K, without cyclodextrin, read-out: Solubility in H2O. Here is the method:
Spectrophotometric measurements were performed using a SPECORD 50 single-beam UV–Vis spectrophotometer (Analyst Jena, Thuringia, Germany). The calibration lines of the compounds tested were determined for the concentration range of 3.0 × 10^−6 M to 1 × 10^−4 M (Figure 21). The molar extinction coefficients for 3, 3a, and 5 were determined experimentally in an aqueous ethanol solution; the relevant maximum wavelengths are presented in Table 9. The influence of α-cyclodextrins, β-cyclodextrins and HP-β-cyclodextrins on the solubility of the tested ligands in water was evaluated in three measurement series. Briefly, excess ligand was introduced into closed Eppendorff tubes containing α-CD, β-CD or HP-β-CD solutions, at concentrations ranging from 1 to 90 mM for α-CD and HP-β-CD and from 1 to 15 mM for β-CD. The test tubes were stored for 10 days at a temperature of 298.15 K until equilibrium was achieved. After this time, the solutions were centrifuged using a Microcentrifuge MPW-55 at 13,000 rpm for five minutes. For testing, a clear solution was taken from above the sediment and diluted appropriately so that the spectrum was within the operating range of the spectrophotometer.

Converted amounts (≈) assume the structure as drawn.

Regarding `COc1cccc(/C=C2/C(=O)c3ccccc3OC2c2ccccc2)c1` (stereo not shown) [Compound 3], the “greater superoxide anion level relative to control (DHE probe)” value in the series with MCF-7 is “approximately 20%”. In addition, the “greater superoxide anion level relative to control (DHE probe)” value in the series with Ishikawa is given as “approximately 20%”. Moreover, in series [1] (HP-β-cyclodextrin), the “K (formation constant)” value is 6.88 × 10^3 ± 430, the “n (stoichiometry)” value was found to be 1.03 ± 0.10, the ΔG was −21,902.2 J mol^−1 and the ΔH was -0.235 ± 0.0191 kcal/mol. In series [1] (HP-β-cyclodextrin), this compound yielded a ΔS of 70.2 J mol^−1K^−1. Besides, in series [1] (α-cyclodextrin), the “K (formation constant)” value is 2.30 × 10^3 ± 180, the “n (stoichiometry)” value is reported as 0.90 ± 0.13, the ΔG is −19,188.6 J mol^−1 and the ΔH is -0.092 ± 0.011 kcal/mol. In addition, the ΔS in series [1] (α-cyclodextrin) came to 63.1 J mol^−1K^−1. In addition, in series [1] (β-cyclodextrin), the “K (formation constant)” value is listed as 3.68 × 10^3 ± 230, the “n (stoichiometry)” value worked out at 0.99 ± 0.11, the ΔG is given as −20,353.7 J mol^−1 and the ΔH is -0.2476 ± 0.021 kcal/mol. The ΔS in series [1] (β-cyclodextrin) amounted to 64.8 J mol^−1K^−1. Besides, in series [2], the “prothrombin time (PT), difference compared to controls (in words)” value is “No statistically significant differences”. Also, the solubility at 10 days in series [3] was determined as 1.29 µM (≈ 0.442 µg/mL).
Turning to `O=C1/C(=C/c2ccccc2)C(c2ccccc2)Oc2ccccc21` (stereo not shown) [Compound 5], the “greater superoxide anion level relative to control (DHE probe)” value with MCF-7 is around 30%. For the same compound, the “greater superoxide anion level relative to control (DHE probe)” value in the series with Ishikawa is on record as around 30%. Further, in series [1] (HP-β-cyclodextrin), the “K (formation constant)” value was 5.12 × 10^3 ± 410, the “n (stoichiometry)” value worked out at 0.93 ± 0.10, the ΔG is listed as −21,172.4 J mol^−1 and the ΔH is -0.119 ± 0.0151 kcal/mol. In series [1] (HP-β-cyclodextrin), the ΔS is given as 69.3 J mol^−1K^−1. In addition, in series [1] (α-cyclodextrin), the “K (formation constant)” value is reported as 1.39 × 10^3 ± 120, the “n (stoichiometry)” value came to 0.83 ± 0.17, the ΔG is on record as −17,940.2 J mol^−1 and the ΔH is -0.049 ± 0.00741 kcal/mol. In series [1] (α-cyclodextrin), the ΔS is recorded as 59.5 J mol^−1K^−1. In series [1] (β-cyclodextrin), the “K (formation constant)” value is on record as 2.32 × 10^3 ± 220, the “n (stoichiometry)” value was 0.93 ± 0.11, the ΔH was -0.0411 ± 0.012 kcal/mol and the ΔS stood at 62.5 J mol^−1K^−1. In series [2], the “prothrombin time (PT), difference compared to controls (in words)” value was “No statistically significant differences”. In series [3], the solubility at 10 days was found to be 1.5 µM (≈ 0.469 µg/mL).

For orientation: solubility means the dissolved amount per volume that the medium holds.
